From publication PMC11894153, “c-di-GMP inhibits rRNA methylation and impairs ribosome assembly in the presence of kanamycin” (EMBO Reports, 2025)
Substitutions are numbered along the chain they refer to.

Columns and labels:
RlmE = target: T1, RlmE (Escherichia coli, UniProt P0C0R7); assay: in vitro rRNA methylation, HPLC; assay type: biochemical
T1 construct: pCA24N or pGEX4T-1 plasmid; purified
T1 sequence (P0C0R7 1-209): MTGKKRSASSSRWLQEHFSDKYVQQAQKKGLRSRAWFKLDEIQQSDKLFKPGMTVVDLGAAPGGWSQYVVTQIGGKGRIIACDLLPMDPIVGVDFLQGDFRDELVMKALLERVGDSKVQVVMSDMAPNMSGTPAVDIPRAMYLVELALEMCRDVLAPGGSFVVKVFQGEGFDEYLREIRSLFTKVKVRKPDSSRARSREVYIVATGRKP

RlmI [1] = target: T2, RlmI (Escherichia coli, UniProt P75876); assay: ITC; assay type: binding
T2 construct: pCA24N or pGEX4T-1 plasmid; His tag detected by anti-His; purified
T2 sequence (P75876 1-396): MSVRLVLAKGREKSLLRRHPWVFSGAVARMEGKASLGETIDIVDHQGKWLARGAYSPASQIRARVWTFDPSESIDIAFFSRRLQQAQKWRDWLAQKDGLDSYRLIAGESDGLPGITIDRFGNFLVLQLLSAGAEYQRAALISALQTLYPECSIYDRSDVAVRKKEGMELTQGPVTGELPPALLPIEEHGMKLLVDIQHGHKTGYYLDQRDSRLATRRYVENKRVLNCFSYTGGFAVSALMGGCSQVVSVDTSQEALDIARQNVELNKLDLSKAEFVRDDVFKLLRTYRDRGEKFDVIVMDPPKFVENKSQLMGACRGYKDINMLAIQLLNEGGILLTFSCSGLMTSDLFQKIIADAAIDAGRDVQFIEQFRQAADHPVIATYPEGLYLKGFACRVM

RlmI [2] = target: T3, RlmI (Escherichia coli, UniProt P75876, K201A); assay: ITC; assay type: binding
T3 construct: pCA24N or pGEX4T-1 plasmid; His tag detected by anti-His; purified
T3 sequence (P75876 1-396 K201A): T2 sequence (P75876 1-396) with K201A

RlmI [3] = target: T4, RlmI (Escherichia coli, UniProt P75876, R103A); assay: ITC; assay type: binding
T4 construct: pCA24N or pGEX4T-1 plasmid; His tag detected by anti-His; purified
T4 sequence (P75876 1-396 R103A): T2 sequence (P75876 1-396) with R103A

RlmI [4] = target: T2, RlmI; assay: in vitro rRNA methylation, HPLC; assay type: biochemical
RlmI [5] = target: T5, RlmI (Escherichia coli, UniProt P75876, R64A); assay: ITC; assay type: binding
T5 construct: pCA24N or pGEX4T-1 plasmid; His tag detected by anti-His; purified
T5 sequence (P75876 1-396 R64A): T2 sequence (P75876 1-396) with R64A

RlmI [6] = target: T6, RlmI (Escherichia coli, UniProt P75876, G114A); assay: ITC; assay type: binding
T6 construct: pCA24N or pGEX4T-1 plasmid; His tag detected by anti-His; purified
T6 sequence (P75876 1-396 G114A): T2 sequence (P75876 1-396) with G114A

Nc1nc2c(ncn2[C@@H]2O[C@@H]3CO[P@](=O)(O)O[C@H]4[C@@H](O)[C@H](n5cnc6c(=O)[nH]c(N)nc65)O[C@@H]4CO[P@](=O)(O)O[C@H]3[C@H]2O)c(=O)[nH]1 [c-di-GMP]
inhibition at 5 µM (RlmE): 31% | Kd (RlmI [1]): 1.3 µM | Kd (RlmI [2]): 401 µM | Kd (RlmI [3]): 76.5 µM | inhibition at 5 µM (RlmI [4]): 49% | Kd (RlmI [5]): 102 µM | Kd (RlmI [6]): 149 µM
